{"source": "patent US20240091366A1", "about": "“NOVEL ACID-SENSITIVE APTAMER TRIPTOLIDE CONJUGATE AND APPLICATIONS” (priority 2022, published 2024)", "key": {"[1]": {"system": "human embryonic kidney cells HEK293", "experiment": "MTT assay, cytotoxicity on normal cells", "type": "cell-based", "conditions": "for cell proliferation inhibition rate: 48 h, samples 1-3", "method": "(§1) The same materials as those in Part II above are not repeated here, in addition to the following: human normal hepatocytes LO2, human embryonic kidney cells HEK293 were purchased from the Shanghai Cell Bank of the Chinese Academy of Sciences and preserved in our laboratory.\n(§2) Take the […] LO2 and HEK293 cell lines from the liquid nitrogen tank, place them in a 37° C. water bath, wait for the frozen cells to melt into cell suspension, centrifuge the cells at 1000 r/min for 3 min, discard the supernatant, add 1 ml of fresh complete medium containing 10% fetal bovine serum and 1% double antibody to mix the cells, then add 5 ml of medium, gently and repeatedly blowing the cells with a pipette gun to make them mix well. Then add 5 ml of medium, blow the cells gently and repeatedly with a pipette gun to mix them well, and finally transfer the cell suspension to a […] and label the cell name, cell number, date of resuscitation and the operator's name, and place it in a cell culture incubator for cultivation. (HEK293 cell line was cultured with DMEM medium, LO2 cell line was cultured with RPMI1640 medium)\n(§3) Take LO2 and HEK293 cells with good growth status, remove the medium, add 1 ml of sterile PBS to wash, add 1.5 ml of trypsin to digest the cells, about 2 min later the cells become round and fall off, add 1.5 ml of medium to terminate the digestion, transfer it to centrifugal tube, centrifuge at 1000 r/min for 3 min, discard the supernatant, add 1 ml of fresh medium to resuspend, then add fresh medium for 1:3 distribution to other culture dishes, and label the date of transmission and the number of generations. Place in the cell culture incubator for cultivation.\n(§4) Take LO2 and HEK293 cells with good growth status, by the same operation as the cell passaging experiment, after cell resuspension, cell counting with hemocyte counting plate, with 3000 cells/well, plant in 96-well plate, after 24 h of cell culture, remove the original medium, add medium containing different concentrations of drugs and continue to cultivate for 48 hours. After 24 h of cell culture, the original medium was removed and the medium containing different concentrations of drugs was added to continue the culture for 48 hours. […] The above steps were repeated three times."}, "[2]": {"system": "human normal hepatocytes LO2", "experiment": "MTT assay, cytotoxicity on normal cells", "type": "cell-based", "conditions": "for cell proliferation inhibition rate: 48 h, samples 1-3", "method": "as §1, §2, §3, §4"}, "[3]": {"system": "colon cancer cells HCT116", "experiment": "In vivo antitumor activity, colon cancer xenograft in nude mice", "design": "species or system mouse; Tumor weight: unit not given here", "conditions": "HCT116 model, once every 2 days, 8 doses", "from_the_text": "(§5) The following are the in vivo activity studies conducted in different tumor-bearing mice:\n(§6) A PBS negative control group was set up."}, "[4]": {"system": "breast cancer cells MDA-MB-231", "experiment": "In vivo antitumor activity, breast cancer xenograft in nude mice", "design": "species or system mouse; Tumor weight: unit not given here", "conditions": "MDA-MB-231 model, once every 2 days, 8 doses", "from_the_text": "as §5\nThe materials used in the experiments were the same as those tested in 5.1 Colon cancer cell lines, differing only in the tumor strains.\nas §6"}, "[5]": {"system": "lung cancer cell line A549", "experiment": "In vivo antitumor activity, lung cancer xenograft in nude mice", "design": "species or system mouse; Tumor weight: unit not given here", "conditions": "A549 model, once every 2 days, 8 doses", "from_the_text": "as §5, §6"}, "[6]": {"experiment": "Body weight during administration, breast cancer model", "conditions": "MDA-MB-231 model, during 8 times of administration", "method": "(§7) Specific experimental protocol: Female nude mice were reared for 6-7 weeks under standard environment, breast cancer cells MDA-MB-231 were suspended in serum-free medium, and each mouse was inoculated with 6*10^6 tumor cells. When the tumor volume reached 50-100 mm^3, the mice were randomly divided into 4 groups, and were injected with aptamer triptolide conjugate, triptolide, and aptamer by tail vein, respectively, 12 mice in each group. A PBS negative control group was set up. […] The drugs were administered once every 2 days for 8 consecutive doses, and the experiment was ended 24 hours after the last dose. At the end of the experiment, the animals were executed by breaking the cervical vertebrae, and the tumors were stripped and weighed to calculate the tumor growth inhibition rate of the drug. The t-test was used to compare the tumor weight, tumor volume, RTV and other indexes of the animals in each group."}, "[7]": {"experiment": "Body weight during administration, lung cancer model", "conditions": "A549 model, during 8 times of administration", "method": "as §7, with “Experimental” for “Specific experimental”, “lung” for “breast”, “cell line A549” for “cells MDA-MB-231”"}}, "note": "Several values for one entry are separate records, joined by “and”; a condition that tells them apart may be missing. Equal entries are not always repeated."}
{"substance": "AS1411: nucleolin aptamer, single-stranded oligonucleotide, SEQ ID NO: 1 GGTGGTGGTGGTTGTGGTGGTGGTGG", "values": [{"measurement": "inhibitory effect on normal cells", "setting": "[1]; HEK293", "value": "no significant inhibitory effect"}, {"measurement": "cell proliferation inhibition rate", "setting": "[1]; HEK293, 6.3 nM, 0.0063 µM", "value": "1.4844 and 1.0633 and 2.0955"}, {"measurement": "cell proliferation inhibition rate", "setting": "[1]; HEK293, 12.5 nM, 0.0125 µM", "value": "2.3262 and 2.9846 and 3.9285"}, {"measurement": "cell proliferation inhibition rate", "setting": "[1]; HEK293, 25.0 nM, 0.025 µM", "value": "4.6088 and 4.6251 and 5.5956"}, {"measurement": "cell proliferation inhibition rate", "setting": "[1]; HEK293, 50.0 nM, 0.05 µM", "value": "5.9341 and 4.5183 and 7.0200"}, {"measurement": "cell proliferation inhibition rate", "setting": "[1]; HEK293, 100.0 nM, 0.1 µM", "value": "9.5603 and 9.9858 and 6.6667"}, {"measurement": "cell proliferation inhibition rate", "setting": "[1]; HEK293, 200.0 nM, 0.2 µM", "value": "13.0496 and 11.5603 and 7.0200"}, {"measurement": "inhibitory effect on normal cells", "setting": "[2]; LO2", "value": "no significant inhibitory effect"}, {"measurement": "cell proliferation inhibition rate", "setting": "[2]; LO2, 6.3 nM, 0.0063 µM", "value": "2.1198 and 1.5844 and 2.2503"}, {"measurement": "cell proliferation inhibition rate", "setting": "[2]; LO2, 12.5 nM, 0.0125 µM", "value": "3.1924 and 2.7446 and 2.0042"}, {"measurement": "cell proliferation inhibition rate", "setting": "[2]; LO2, 25.0 nM, 0.025 µM", "value": "4.5962 and 5.2695 and 5.1506"}, {"measurement": "cell proliferation inhibition rate", "setting": "[2]; LO2, 50.0 nM, 0.05 µM", "value": "7.3070 and 6.4174 and 7.0396"}, {"measurement": "cell proliferation inhibition rate", "setting": "[2]; LO2, 100.0 nM, 0.1 µM", "value": "7.6842 and 6.8369 and 7.5344"}, {"measurement": "cell proliferation inhibition rate", "setting": "[2]; LO2, 200.0 nM, 0.2 µM", "value": "8.3084 and 8.0987 and 13.5426"}, {"measurement": "RTV", "setting": "[3]; 10 μM 100 μL tail vein", "value": "33.13 ± 0.51"}, {"measurement": "T/C (%)", "setting": "[3]; 10 μM 100 μL tail vein", "value": 93.19, "unit": "%"}, {"measurement": "Tumor inhibition rate (%)", "setting": "[3]; 10 μM 100 μL tail vein", "value": 6.45, "unit": "%"}, {"measurement": "Tumor weight", "setting": "[3]; 10 μM 100 μL tail vein", "value": "2.92 ± 0.33"}, {"measurement": "RTV", "setting": "[3]; 30 μM 100 μL tail vein", "value": "28.56 ± 0.23"}, {"measurement": "T/C (%)", "setting": "[3]; 30 μM 100 μL tail vein", "value": 80.34, "unit": "%"}, {"measurement": "Tumor inhibition rate (%)", "setting": "[3]; 30 μM 100 μL tail vein", "value": 12.91, "unit": "%"}, {"measurement": "Tumor weight", "setting": "[3]; 30 μM 100 μL tail vein", "value": "2.74 ± 0.15"}, {"measurement": "RTV", "setting": "[3]; 50 μM 100 μL tail vein", "value": "26.32 ± 0.15"}, {"measurement": "T/C (%)", "setting": "[3]; 50 μM 100 μL tail vein", "value": 74.04, "unit": "%"}, {"measurement": "Tumor inhibition rate (%)", "setting": "[3]; 50 μM 100 μL tail vein", "value": 16.12, "unit": "%"}, {"measurement": "Tumor weight", "setting": "[3]; 50 μM 100 μL tail vein", "value": "2.66 ± 0.14"}, {"measurement": "RTV", "setting": "[4]; 10 μM tail vein", "value": "39.29 ± 16"}, {"measurement": "T/C (%)", "setting": "[4]; 10 μM tail vein", "value": 94.79, "unit": "%"}, {"measurement": "Tumor inhibition rate (%)", "setting": "[4]; 10 μM tail vein", "value": 7.00, "unit": "%"}, {"measurement": "Tumor weight", "setting": "[4]; 10 μM tail vein", "value": "3.19 ± 0.27"}, {"measurement": "RTV", "setting": "[4]; 30 μM tail vein", "value": "37.55 ± 34"}, {"measurement": "T/C (%)", "setting": "[4]; 30 μM tail vein", "value": 90.59, "unit": "%"}, {"measurement": "Tumor inhibition rate (%)", "setting": "[4]; 30 μM tail vein", "value": 14.87, "unit": "%"}, {"measurement": "Tumor weight", "setting": "[4]; 30 μM tail vein", "value": "2.92 ± 0.39"}, {"measurement": "RTV", "setting": "[4]; 50 μM tail vein", "value": "35.19 ± 38"}, {"measurement": "T/C (%)", "setting": "[4]; 50 μM tail vein", "value": 84.90, "unit": "%"}, {"measurement": "Tumor inhibition rate (%)", "setting": "[4]; 50 μM tail vein", "value": 18.95, "unit": "%"}, {"measurement": "Tumor weight", "setting": "[4]; 50 μM tail vein", "value": "2.78 ± 0.41"}, {"measurement": "RTV", "setting": "[5]; 10 μM tail vein", "value": "34.57 ± 0.18"}, {"measurement": "T/C (%)", "setting": "[5]; 10 μM tail vein", "value": 89.93, "unit": "%"}, {"measurement": "Tumor inhibition rate (%)", "setting": "[5]; 10 μM tail vein", "value": 6.06, "unit": "%"}, {"measurement": "Tumor weight", "setting": "[5]; 10 μM tail vein", "value": "3.16 ± 0.13"}, {"measurement": "RTV", "setting": "[5]; 30 μM tail vein", "value": "31.09 ± 0.27"}, {"measurement": "T/C (%)", "setting": "[5]; 30 μM tail vein", "value": 75.76, "unit": "%"}, {"measurement": "Tumor inhibition rate (%)", "setting": "[5]; 30 μM tail vein", "value": 15.15, "unit": "%"}, {"measurement": "Tumor weight", "setting": "[5]; 30 μM tail vein", "value": "2.88 ± 0.26"}, {"measurement": "RTV", "setting": "[5]; 50 μM tail vein", "value": "26.19 ± 0.38"}, {"measurement": "T/C (%)", "setting": "[5]; 50 μM tail vein", "value": 70.06, "unit": "%"}, {"measurement": "Tumor inhibition rate (%)", "setting": "[5]; 50 μM tail vein", "value": 21.21, "unit": "%"}, {"measurement": "Tumor weight", "setting": "[5]; 50 μM tail vein", "value": "2.61 ± 0.38"}, {"measurement": "body weights of mice", "setting": "[6]", "value": "basically maintained in the tolerable range of animal toxicity and side-effects"}, {"measurement": "body weights of mice", "setting": "[7]", "value": "basically maintained in the tolerable range of animal toxicity and side-effects"}]}
